# In US20260014278A1, “HYBRID PEPTIDE DENDRIMER SYSTEMS AND EXTRAHEPATIC DELIVERY” (NUNTIUS THERAPEUTICS LIMITED, priority 2022, published 2026):
# Tests used:
# human THP-1 cells = test: eGFP mRNA transfection of human THP-1 macrophages, flow cytometry; type: cell-based; settings: GSCG1,2-RL, 3-LR NP=0.16:1, GSCG1-LRLR NP=0.6, GSCG1,2-RHL NP=5:1, GSCG1,2-RF, 3HL NP=0.6:1, RHCG1-R NP=0.6:1, DOTMA:DOPE w/w 10:1, lipid-only w/w 3.2:1, FIG. 3
# Procedure: THP-1 cells (a human leukaemia monocytic cell line) were sub-cultured in RPMI (with glutamax)+10% heat inactivated FBS (complete media) at 3E+5 cells/ml and passaged every 3-4 days. For macrophage polarisation 7.5E+6 cells were seeded in T75 flasks in a total of 20 ml complete media containing 5 ng/ml PMA (1:1000 of 5 ug/ml stock). The cells were transferred to the 37° C. incubator for overnight. After 24 hrs, THP-1 cells were washed with complete medium and a fresh flask complete medium (not containing PMA) was overlaid on the cells. After a further 72 hrs, the complete medium was exchanged for fresh complete media containing 20 ng/ml rhlL-4 (1:500 of 10 μg/ml stock). 24 hrs later the cells were harvested by firstly washing the cells with PBS followed by a 5 minute treatment at 37° C. with 5 mM EDTA (diluted in PBS). Cells were spun down at 300 g for 5 minutes and resuspended in a complete medium containing 20 ng/ml rhlL-4 at 2.4E+5 cells/mi. 500 ul of cells were seeded into each well on a 24-well plate and left overnight in the 37° C. incubator.
# The medium overlaying the polarised THP-1 cells was aspirated and exchanged with 480 ul/well complete media containing 20 ng/ml rhlL-4. […]
# Data were collected using a BD LSRFortessa I analyser running […] software (Beckton Dickinson). All collected data were analysed using FlowJo 10.0 software. […]
# [1] = Dynamic light scattering: hydrodynamic size and polydispersity index (PDI) of nanoparticles; type: physicochemical; settings: for Polydispersity Index (PDI): peptide dendrimer, lipid and mRNA complexes, N:P 8:1, DOTMA/DOPE w/w 10:1 to mRNA
# Procedure: (§1) The hydrodynamic size was measured using the dynamic light scattering (DLS) technique. DLS is a very sensitive, non-invasive method to measure size and size distribution of nanoparticles in a liquid. […] Analysing these intensity fluctuations allows us to calculate the velocity of the Brownian motion. The size of the nanoparticles can be determined by using the Stokes-Einstein relationship. With the latest technology, it can measure nanoparticles smaller than 1 nm.
# PDI is used to estimate the average uniformity of a particle solution, The method of cumulants is a standard technique for analysing DLS data on sample polydispersity. PDI is a number calculated from a 2 parameter fit to the correlation data (the cumulants analysis). The cumulants analysis is used to evaluate the autocorrelation function generated by a DLS experiment. The calculation is defined in ISO 13321 and ISO 22412. PDI values greater than 0.7 indicate that the sample has a very broad size distribution and is not suitable for the DLS technique. The calculations for these parameters are defined in the ISO standard document 13321:1996 E and ISO 22412:2008.
# as §1, with “Size, zeta potential and polydispersity index (PDI) measurement: The hydrodynamic” for “The hydrodynamic”, “scattering (DLS) technique using the Zetasizer Advance Series—Pro (Malvern Panalytical Ltd, Malvern, UK) according to the manufacturer's instructions. DLS is” for “scattering (DLS) technique. DLS is”
# The data obtained with DLS measurements can also be used to calculate the PDI of particle in solution. PDI is used to estimate the average uniformity of a particle solution. The method of cumulants is a standard technique for analysing DLS data on sample polydispersity. PDI is a number calculated from a 2 parameter fit to the correlation data (the cumulants analysis). The cumulants analysis is used to evaluate the autocorrelation function generated by a DLS experiment. The calculation is defined in ISO 13321 and ISO 22412. PDI values greater than 0.7 indicate that the sample has a very broad size distribution and is not suitable for the DLS technique. The calculations for these parameters are defined in the ISO standard document 13321:1996 E and ISO 22412:2008.
# To measure the size and PDI, the samples were diluted 16× in 25 mM HEPES buffer (5 μl sample+75 μl buffer). Parameters: reference material: polystyrene latex, dispersant: water, 25° C. The PDI measurements were measured in nanoparticles comprising a dendrimer:nucleic acid NP ratio of 8:1.
# mouse macrophages = test: eGFP mRNA transfection of mouse macrophages with or without mannose-dendrimer coat; type: cell-based; settings: GSCG1,2-RHL nanoparticle NP=8:1, DOTMA/DOPE:mRNA w/w 10:1, coat 1:1 (1 eq) coating:mRNA; FIG. 6
# Procedure: J774.2 cells were subcultured in DMEM supplemented with 2 mM glutamax and 10% heat-inactivated FBS (complete media). Twice a week (at about 70-80% confluency; every 3-4 days), cells were scrapped and collected into Falcon tubes, and pelleted at 400 g for 5 minutes. The cells were resuspended in complete media, counted and seeded into 10 cm dishes at a density of 1.7-2.5E+4 cells/cm^2. For M2 polarisation, the cells were treated with complete media supplemented with 20 ng/ml recombinant murine IL-4 and 20 ng/ml recombinant murine IL-13 (activation media) over a 48 hr period. After 24 hrs in IL-4 and IL-13 containing medium, the cells scrapped and collected as described above. The cells were seeded into 24-well plates at a density of 1.2E+5 cells/well in 0.5mls/well complete media containing 20 ng/ml IL-4 and IL-13.
# The media overlaying the polarised J774.2 cells was aspirated and exchanged with 480 ul/well activation media. 120 ul/well of each test condition (total volume was 600 ul/well) was added (test conditions were prepared in 25 mM HEPES solution). Control conditions were prepared consisting of neat 25 mM HEPES and an mRNA control. Between addition of each test condition the plate was shaken back and forth to ensure mixing. The plate was placed into the incubator overnight.
# Staining and fixation for both human and mouse-derived macrophages was carried out as follows. After 24 hrs the media overlaying each test condition was transferred to corresponding 1.5 ml Eppendorf tubes (in order to conserve cells that may have died during transfection). Cells were then washed with 300 ul/well PBS which was transferred to the corresponding tubes. 500 ul/well 5 mM EDTA was added to each well and the plate(s) transferred to the 37° C. incubator for 5-10 minutes until the cells started to detach. Cells were then transferred from the plate to the corresponding 1.5 ml tubes. Cells were pelleted down at 300 g for 5 minutes and resuspended in 100 ul/sample fixable Live/Dead Aqua stain. ArC beads were stained with 3 ul neat Live/Dead Aqua for compensation. These cells were stained on ice for 30 minutes. Following this, the tubes were spun down at 300 g for 5 minutes. The supernatant was discarded, and the cells were resuspended in 500 ul/sample PBS. Negative ArC beads were added to the compensation control. GFP compensation beads were dispensed into separate tube as the GFP compensation control. The samples were spun down at 300 g for 5 minutes. Samples were then resuspended in 100 ul/sample of Reagent A from the Invitrogen Fix/Perm kit and left at room temperature for 15 minutes. The samples were spun down at 400 g for 5 minutes and the supernatant was disposed. The samples were once again washed with PBS and spun down at 300 g for 5 minutes. The cells were finally resuspended in 400 ul/sample FACS buffer (PBS+2 mM EDTA+0.5% w/v BSA) for flow analysis. Samples were stored in the fridge prior to flow analysis and run within 24 hrs of fixation.
# 12 μl of a nanoparticle formulation was aliquoted into a sterile 0.5 ml polypropylene tube. 4 μl of a 0.3 mg/ml, 0.6 mg/ml or 1.8 mg/ml solution of (Ac-EEEE)2[…][(S-S)-α-D-Thiomannose] (for a mRNA:coating mass ratio of 1:0.5, 1:1 or 1:3, respectively) was mixed by rapidly pipetting up and down 10-15 times, and allowed to incubate for 5 minutes.
# Macrophages, and in particular M2-phenotype macrophages, are known to have enriched surface expression of the receptor CD206, the ligand for which is mannose.
# myeloid cells in tumour = test: In vivo uptake of Alexafluor488 tagged mRNA by cells in tumour of MC38 bearing mice; design: species or system C57Bl/6 mice; settings: GSCG1,2-RL, 3-LR N:P=0.16:1, DOTMA:DOPE 10:1, coat 3 eq; 2.25 mg/kg IV, 4 hours; FIG. 39
# Text: Compensation was adjusted using the Attune compensation beads.
# lung cells = settings: GSCG1,2-RL, 3-LR N:P=0.16:1, DOTMA:DOPE 10:1, coat 3 eq; 2.25 mg/kg IV, 4 hours; FIG. 13
# Procedure: Six week old, female C57Bl/6 mice were supplied from Envigo UK. The mice were acclimatized in the animal facility for at least 7 days prior to use. […] The mice were randomised into 4 groups of n=3 when the tumours reached 0.15 cm3 (calliper measurements) and were dosed IV at 2.25 mg/kg or 3 mg/kg.
# Four hours post dosing of the formulations, the animals were culled, and tissues were harvested. Terminal blood was collected in EDTA tubes and treated with Red Blood Cell Lysing Buffer HYBRI-MAX (Merck) prior to antibody staining. Spleens were dissociated by pushing through a 70 uM cell strainer using a syringe plunge. The cell suspension was then treated with Red Blood Cell Lysing Buffer HYBRI-MAX (Merck) prior to antibody staining. Lung and tumour samples were cut into small pieces and were enzymatically digested using the Lung and Tumor Dissociation Kit (mouse) and the gentleMACS™ Octo Dissociator with Heaters (Miltenyi) following the manufacturer's instructions.
# The final cell suspensions were blocked with mouse Fc block prior to antibody staining. Cells were incubated with the antibody master mix at 4 C for 20 min and then they were fixed using 4% PFA for 30 min RT. They were analysed using the Attune NxT flow cytometer (Thermo Fisher) within 24 hours of fixing and data was analysed using the FlowJo_v10.8.1 software. Compensation was adjusted using the Attune compensation beads.
# lung and spleen = test: Luciferase mRNA expression in mouse tissues after intravenous administration (bioluminescence); type: in vivo, Balb/c mice; settings: 6 hours, DOTMA/DOPE w/w=23:1 to mRNA, dendrimers NP=0.6:1, FIG. 11
# Procedure: All animal procedures were conducted following the Animal Research Reporting of In Vivo Experiments and approved by the UK Home Office for the conduct of regulated procedures under license. For the data underlying FIG. 11, Balb/c mice aged 4 weeks were purchased from Jackon's Laboratory and left to acclimate in the new housing environment for 1-week upon their arrival. All mice were weighed and warmed for 15 min at 37 C in a heating chamber. The formulations were delivered intravenously (5 mL/kg) via the tail vein using 30 G insulin syringes (BD biosciences).
# All mice were imaged 6 hours post injection. BLI was performed using an IVIS Lumina II (Perkin Elmer) imaging system. Mice were administered D-luciferin (GoldBio) at a dose of 10 uL/g. Mice were anaesthetised in a chamber with 2.5% isoflurane and then placed on a heated imaging platform while being maintained on 2.5% isoflurane. For the data underlying FIG. 11, mice were imaged 10 min post administration of D-luciferin with an exposure time set at 45 sec to ensure the signal acquired was within an effective detection range (binning medium). Bioluminescence signal was quantified by measuring photon flux (photons/s) using the Living Image software (Perkin Elmer). […] The organs were placed in the centre of imaging platform (Lumina II system) and signal was measured using the acquisition settings detailed above. […]
# [2] = tested on: macrophage-polarised primary bone marrow derived monocytes; test: eGFP mRNA transfection of macrophage-polarised primary mouse bone marrow derived monocytes, flow cytometry; type: cell-based; settings: GSCG1,2-RHL NP=0.6:1, GSCG1,2-RL, 3-LR NP=0.16:1, GSCG1,RL, 2-LR NP=8:1, DOTMA:DOPE w/w 10:1, lipid-only DOTMA/DOPE w/w 3.2:1, FIG. 2
# Procedure: BMDM cells were isolated using the StemCell Tech EasySep Mouse Monocyte Isolation Kit from mouse bone marrow cell suspension. The cells were resuspended in complete medium (DMEM+1% glutamax+10% heat inactivated FBS+1% Pen/Strep) enriched with 50 ng/ml murine M-CSF (1:1000 of 50 μg/ml stock) at 1E+6 cells/mi. 2 million cells (i.e. 2 mL) was seeded in each well of 6-well plate(s). The plate was incubated at 37° C. for 4 days. Half media exchange was performed using complete media enriched with […] murine M-CSF and 40 ng/ml murine IL-4. Cells were then harvested the next day (day 5) by washing cells with PBS and a 10 minute incubation with 5 mM EDTA (diluted in PBS) at 37° C. followed by plate tapping and resuspension. […]
# Data were collected using a BD LSRFortessa I analyser running […] software (Beckton Dickinson). All collected data were analysed using FlowJo 10.0 software.
# Transfection efficiency of macrophage-polarised primary bone marrow derived monocytes using various peptide dendrimer/lipid nanoparticles was assessed and compared to lipid-only nanoparticles (LPX-RNA). Each nanoparticle, with or without dendrimer, included eGFP mRNA to allow analysis of absolute numbers of cells transfected to be assessed by flow cytometry. […]
substance,measurement,setting,value
(R)2KRHC-NH2 [RHCG1-R],transfection efficiency,human THP-1 cells,30-35%
same,PDI,"[1]; Table 7, first generation dendrimers for mixed dendrimer nanoparticles",0.566
(Ac-EEEE)2KGSGGSGGSC[(S-S)-α-D-Thiomannose] [Mannose-G1-EEEE],increase of transfection efficiency compared to a non-coated nanoparticle,mouse macrophages,~10%
same,uptake by CD206+ M2 macrophage cells in tumour versus non-coated nanocarrier and LPX-mRNA,myeloid cells in tumour,more effectively
same,uptake by CD206+ cells in the lung versus non-coated nanocarrier and LPX-mRNA,lung cells,more effectively
same,uptake in the lung cells versus non-coated nanocarrier and LPX-mRNA,lung cells,higher uptake in the lung cells
(LRLR)2KGSC-NH2 [GSCG1-LRLR],delivery of luciferase mRNA cargo to lung and spleen (bioluminescence),lung and spleen,further improved
same,Polydispersity Index (PDI),[1],0.581
"(LR)4(KRL)2KRHC-NH2 [RHCG1-RL, 2-LR]",transfection efficiency,[2],~50%
same,Polydispersity Index (PDI),[1],0.109
